Test results: US9980943B2, “Methods of treating muscular dystrophy” (BOARD OF REGENTS OF THE NEVADA SYSTEM OF HIGHER EDUCATION, …, priority 2013, dated 2018)

Assays:
Format in all cases: cell-based, mouse
[1] = test system: β-galactosidase in CMV-LacZ C2C12 myotubes; assay: CMV-LacZ secondary screen in C2C12 myotubes (β-Gal stabilizing assay); conditions: for CMV-LACZ in Myotubes, signal relative to DMSO: C2C12 CMV-LacZ myotubes, fold relative to DMSO; for CMV-LACZ in Myotubes, value relative to DMSO: SU9516 analogs, C2C12 CMV-LacZ, N=2
Outline: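 First, C2C12 myoblasts were transfected with a linearized CMV-LACZ vector and clonal lines selected by FDG β-gal assay. Then cells were exposed to compounds at 0.5, 1, 5, 10, 20 and 40 μM in 96-well format, two replicates each, and β-gal measured.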

[2] = test system: β-galactosidase in CMV-LacZ C2C12 myoblasts; assay: CMV-LacZ secondary screen in C2C12 myoblasts (β-Gal stabilizing assay); conditions: for CMV-LACZ in Myoblasts (β-galactosidase activity relative to DMSO): CMV-LacZ C2C12 myoblasts; for CMV-LACZ in Myoblasts, value relative to DMSO: SU9516 analogs, C2C12 CMV-LacZ, N=2
Outline: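 Stable CMV-LacZ C2C12 clone; six-point curve 0.5–40 μM; duplicates.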

[3] = test system: α7 integrin (LacZ reporter in α7βgal+/− myoblasts); assay: Myoblast α7+/LacZ integrin FDG assay (Burkin assay in myoblasts, 96-well); conditions: 96-well; for Burkin Assay in Myoblasts, signal relative to DMSO: α7+/LacZ myoblasts; for Burkin Assay in Myoblasts, value relative to DMSO: SU9516 analogs, N=3-6
[4] = test system: α7 integrin (LacZ reporter in α7+/LacZ myotubes); assay: Myotube α7 integrin FDG assay (Burkin assay in myotubes, 96-well); conditions: for Burkin Assay in Myotubes, value relative to DMSO: SU9516 analogs, 96-well, N=3-6

Compound: O=C1Nc2ccccc2/C1=C/c1ccccc1F [MLS001202389-01]
- CMV-LACZ in Myotubes, signal relative to DMSO ([1]; 0.5 uM): 1.1558
- CMV-LACZ in Myotubes, signal relative to DMSO ([1]; 1 uM): 1.1821
- CMV-LACZ in Myotubes, signal relative to DMSO ([1]; 5 uM): 1.0432
- CMV-LACZ in Myotubes, signal relative to DMSO ([1]; 10 uM): 1.1312
- CMV-LACZ in Myotubes, signal relative to DMSO ([1]; 20 uM): 1.0900
- CMV-LACZ in Myotubes, signal relative to DMSO ([1]; 40 uM): 0.9311
- CMV-LACZ in Myoblasts (β-galactosidase activity relative to DMSO) ([2]; 0.5 uM): 1.0237
- CMV-LACZ in Myoblasts (β-galactosidase activity relative to DMSO) ([2]; 1 uM): 1.1108
- CMV-LACZ in Myoblasts (β-galactosidase activity relative to DMSO) ([2]; 5 uM): 1.0084
- CMV-LACZ in Myoblasts (β-galactosidase activity relative to DMSO) ([2]; 10 uM): 0.8920
- CMV-LACZ in Myoblasts (β-galactosidase activity relative to DMSO) ([2]; 20 uM): 0.6115
- CMV-LACZ in Myoblasts (β-galactosidase activity relative to DMSO) ([2]; 40 uM): 0.5081
- Burkin Assay in Myoblasts, signal relative to DMSO ([3]; 0.5 uM): 0.9323
- Burkin Assay in Myoblasts, signal relative to DMSO ([3]; 1 uM): 0.9481
- Burkin Assay in Myoblasts, signal relative to DMSO ([3]; 5 uM): 1.009
- Burkin Assay in Myoblasts, signal relative to DMSO ([3]; 10 uM): 1.1004
- Burkin Assay in Myoblasts, signal relative to DMSO ([3]; 20 uM): 0.5816
- Burkin Assay in Myoblasts, signal relative to DMSO ([3]; 40 uM): 0.2556
- Burkin Assay in Myotubes, α7 integrin LacZ reporter signal relative to DMSO ([4]; 0.5 uM): 0.9181
- Burkin Assay in Myotubes, α7 integrin LacZ reporter signal relative to DMSO ([4]; 1 uM): 0.9393
- Burkin Assay in Myotubes, α7 integrin LacZ reporter signal relative to DMSO ([4]; 5 uM): 0.9936
- Burkin Assay in Myotubes, α7 integrin LacZ reporter signal relative to DMSO ([4]; 10 uM): 1.053
- Burkin Assay in Myotubes, α7 integrin LacZ reporter signal relative to DMSO ([4]; 20 uM): 0.6412
- Burkin Assay in Myotubes, α7 integrin LacZ reporter signal relative to DMSO ([4]; 40 uM): 0.5594

Compound: CCOc1cc2c3c(c1)C(C)=CC(C)(C)N3C(=O)C2=O [MLS000710233-01]
- CMV-LACZ in Myotubes, value relative to DMSO ([1]; 0.5 uM): 0.8781
- CMV-LACZ in Myotubes, value relative to DMSO ([1]; 1 uM): 0.9410
- CMV-LACZ in Myotubes, value relative to DMSO ([1]; 5 uM): 0.9060
- CMV-LACZ in Myotubes, value relative to DMSO ([1]; 10 uM): 1.0698
- CMV-LACZ in Myotubes, value relative to DMSO ([1]; 20 uM): 1.1130
- CMV-LACZ in Myotubes, value relative to DMSO ([1]; 40 uM): 1.1380
- CMV-LACZ in Myoblasts, value relative to DMSO ([2]; 0.5 uM): 1.0173
- CMV-LACZ in Myoblasts, value relative to DMSO ([2]; 1 uM): 0.8263
- CMV-LACZ in Myoblasts, value relative to DMSO ([2]; 5 uM): 0.8263
- CMV-LACZ in Myoblasts, value relative to DMSO ([2]; 10 uM): 0.8509
- CMV-LACZ in Myoblasts, value relative to DMSO ([2]; 20 uM): 0.8530
- CMV-LACZ in Myoblasts, value relative to DMSO ([2]; 40 uM): 0.8779
- Burkin Assay in Myoblasts, value relative to DMSO ([3]; 0.5 uM): 1.17
- Burkin Assay in Myoblasts, value relative to DMSO ([3]; 1 uM): 1.159
- Burkin Assay in Myoblasts, value relative to DMSO ([3]; 5 uM): 0.8066
- Burkin Assay in Myoblasts, value relative to DMSO ([3]; 10 uM): 0.5637
- Burkin Assay in Myoblasts, value relative to DMSO ([3]; 20 uM): 0.1723
- Burkin Assay in Myoblasts, value relative to DMSO ([3]; 40 uM): 0.1743
- Burkin Assay in Myotubes, value relative to DMSO ([4]; 0.5 uM): 1.11
- Burkin Assay in Myotubes, value relative to DMSO ([4]; 1 uM): 1.033
- Burkin Assay in Myotubes, value relative to DMSO ([4]; 5 uM): 0.9331
- Burkin Assay in Myotubes, value relative to DMSO ([4]; 10 uM): 0.8688
- Burkin Assay in Myotubes, value relative to DMSO ([4]; 20 uM): 0.6933
- Burkin Assay in Myotubes, value relative to DMSO ([4]; 40 uM): 0.6295

Compound: O=C1Nc2ccccc2/C1=C\c1cccn1-c1ccc(OC(F)(F)F)cc1 [MLS000546982-01]
- CMV-LACZ in Myotubes, value relative to DMSO ([1]; 0.5 uM): 1.0438
- CMV-LACZ in Myotubes, value relative to DMSO ([1]; 1 uM): 0.8467
- CMV-LACZ in Myotubes, value relative to DMSO ([1]; 5 uM): 1.0159
- CMV-LACZ in Myotubes, value relative to DMSO ([1]; 10 uM): 1.1265
- CMV-LACZ in Myotubes, value relative to DMSO ([1]; 20 uM): 1.0160
- CMV-LACZ in Myotubes, value relative to DMSO ([1]; 40 uM): 1.3290
- CMV-LACZ in Myoblasts, value relative to DMSO ([2]; 0.5 uM): 1.0877
- CMV-LACZ in Myoblasts, value relative to DMSO ([2]; 1 uM): 1.2640
- CMV-LACZ in Myoblasts, value relative to DMSO ([2]; 5 uM): 0.9273
- CMV-LACZ in Myoblasts, value relative to DMSO ([2]; 10 uM): 1.0785
- CMV-LACZ in Myoblasts, value relative to DMSO ([2]; 20 uM): 0.9512
- CMV-LACZ in Myoblasts, value relative to DMSO ([2]; 40 uM): 1.3937
- Burkin Assay in Myoblasts, value relative to DMSO ([3]; 0.5 uM): 0.8799
- Burkin Assay in Myoblasts, value relative to DMSO ([3]; 1 uM): 1.155
- Burkin Assay in Myoblasts, value relative to DMSO ([3]; 5 uM): 1.272
- Burkin Assay in Myoblasts, value relative to DMSO ([3]; 10 uM): 1.078
- Burkin Assay in Myoblasts, value relative to DMSO ([3]; 20 uM): 1.053
- Burkin Assay in Myoblasts, value relative to DMSO ([3]; 40 uM): 0.8883
- Burkin Assay in Myotubes, value relative to DMSO ([4]; 0.5 uM): 1.048
- Burkin Assay in Myotubes, value relative to DMSO ([4]; 1 uM): 1.038
- Burkin Assay in Myotubes, value relative to DMSO ([4]; 5 uM): 1.145
- Burkin Assay in Myotubes, value relative to DMSO ([4]; 10 uM): 0.9962
- Burkin Assay in Myotubes, value relative to DMSO ([4]; 20 uM): 0.8556
- Burkin Assay in Myotubes, value relative to DMSO ([4]; 40 uM): 0.7111
